Source: publication PMC3581075 (Journal of pharmaceutical sciences, 2011)
Counter-ions that a name gives are not always drawn. Like-named read-outs stand apart in the source and are kept apart here.

How the values were obtained:
rat hepatocytes [1] = details: 2 min, rifampin 10 μM, MK-571 100 μM
OATP2B1 = biological target: T1, OATP2B1 (Homo sapiens, UniProt O94956); details: on average; p<0.05
T1 sequence (O94956 1-709): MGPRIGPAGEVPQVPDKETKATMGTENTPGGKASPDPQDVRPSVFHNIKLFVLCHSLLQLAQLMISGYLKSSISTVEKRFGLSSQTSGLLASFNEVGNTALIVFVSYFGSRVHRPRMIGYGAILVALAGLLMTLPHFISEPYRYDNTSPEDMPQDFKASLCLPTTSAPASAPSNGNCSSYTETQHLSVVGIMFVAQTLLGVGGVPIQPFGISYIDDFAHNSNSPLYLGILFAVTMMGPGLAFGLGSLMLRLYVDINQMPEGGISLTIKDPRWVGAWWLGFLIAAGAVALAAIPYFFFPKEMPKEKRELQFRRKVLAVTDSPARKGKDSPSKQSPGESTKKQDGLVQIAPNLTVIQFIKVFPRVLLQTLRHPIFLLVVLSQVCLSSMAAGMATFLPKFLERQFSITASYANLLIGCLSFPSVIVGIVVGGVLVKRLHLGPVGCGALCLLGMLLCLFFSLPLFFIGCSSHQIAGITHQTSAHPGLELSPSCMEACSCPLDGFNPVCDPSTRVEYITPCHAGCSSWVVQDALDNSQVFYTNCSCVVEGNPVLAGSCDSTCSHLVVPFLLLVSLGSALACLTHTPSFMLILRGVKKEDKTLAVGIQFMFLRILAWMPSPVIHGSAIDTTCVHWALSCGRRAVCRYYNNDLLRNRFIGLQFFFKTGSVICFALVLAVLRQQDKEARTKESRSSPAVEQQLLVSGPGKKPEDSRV

OATP1B3 = biological target: T2, OATP1B3 (Homo sapiens, UniProt Q9NPD5); details: on average; p<0.05
T2 sequence (Q9NPD5 1-702): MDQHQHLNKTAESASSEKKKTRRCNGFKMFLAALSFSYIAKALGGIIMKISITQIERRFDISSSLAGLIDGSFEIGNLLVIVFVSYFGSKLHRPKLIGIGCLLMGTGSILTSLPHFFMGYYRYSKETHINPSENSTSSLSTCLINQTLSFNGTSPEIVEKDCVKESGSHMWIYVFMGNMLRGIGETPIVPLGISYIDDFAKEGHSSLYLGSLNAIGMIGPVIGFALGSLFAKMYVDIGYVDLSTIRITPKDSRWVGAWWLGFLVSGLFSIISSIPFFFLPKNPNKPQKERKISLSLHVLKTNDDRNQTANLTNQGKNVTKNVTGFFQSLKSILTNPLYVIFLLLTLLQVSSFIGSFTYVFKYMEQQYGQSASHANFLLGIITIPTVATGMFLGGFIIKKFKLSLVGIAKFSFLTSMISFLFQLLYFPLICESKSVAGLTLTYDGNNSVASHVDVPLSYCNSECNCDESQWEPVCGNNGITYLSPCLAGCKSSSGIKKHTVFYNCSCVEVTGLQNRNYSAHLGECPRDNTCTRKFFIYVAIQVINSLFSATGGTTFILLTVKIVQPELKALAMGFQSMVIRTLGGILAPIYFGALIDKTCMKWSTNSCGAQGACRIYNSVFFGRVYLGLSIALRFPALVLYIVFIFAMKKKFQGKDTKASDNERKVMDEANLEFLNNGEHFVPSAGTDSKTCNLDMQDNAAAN

rat hepatocytes [2] = tested on: rat hepatocytes
[3] = classification by solubility, permeability and extent of metabolism; cited from earlier work
rat hepatocytes [4] = tested on: rat hepatocytes; remark: listed apart in the source
pooled rat microsomes [5] = assay: Microsome incubations, pooled rat microsomes; details: propranolol 10 μM, 0.5 mg/ml microsomes, 30 min, 37°C; rifampin 10 μM, quinidine 30 μM
pooled human microsomes [6] = assay: Microsome incubations, pooled human microsomes; details: propranolol 10 μM; quinidine 30 μM
rat hepatocytes [7] = tested on: rat hepatocytes; remark: listed apart in the source
pooled rat microsomes [8] = tested on: pooled rat microsomes
pooled human microsomes [9] = tested on: pooled human microsomes

In the case of `CN(C)C(=O)CCSC(SCCC(=O)O)c1cccc(/C=C/c2ccc3ccc(Cl)cc3n2)c1` (stereo not shown) [MK-571], the “Change of uptake of propranolol in rat hepatocytes” value (rat hepatocytes [1]; propranolol 10 μM, n=4) was “not significantly changed”.

In the case of `CC12CCC3c4ccc(OS(=O)(=O)O)cc4CCC3C1CCC2=O` (stereo not shown) [[^3H]-estrone sulfate], the “Decrease of uptake in pcMV6 empty vector control vs OATP2B1 transfected cells” value (OATP2B1) was 80% and the “Decrease of uptake in pcMV6 empty vector control vs OATP1B3 transfected cells” value (OATP1B3) was 50%.

For `CC[C@H](C)[C@H](NC(=O)[C@H](CC(=O)O)NC(=O)[C@H](CC(C)C)NC(=O)[C@H](Cc1cnc[nH]1)NC(=O)[C@@H]1CSSC[C@H](N)C(=O)N[C@@H](CO)C(=O)N[C@H]2CSSC[C@H](NC(=O)[C@H](CCC(=O)O)NC(=O)[C@H](CCCCN)NC(=O)[C@H](CC(=O)O)NC(=O)[C@H](CCSC)NC(=O)[C@H](CC(C)C)NC(=O)[C@H](CO)NC(=O)[C@H](CO)NC2=O)C(=O)N[C@@H](C(C)C)C(=O)N[C@@H](Cc2ccc(O)cc2)C(=O)N[C@@H](Cc2ccccc2)C(=O)N1)C(=O)N[C@H](C(=O)N[C@@H](Cc1c[nH]c2ccccc12)C(=O)O)[C@@H](C)CC` [endothelin], the “Inhibition of uptake of losartan in rat hepatocytes” value (rat hepatocytes [2]) was 22%.

For `CCCCc1ncc(/C=C(\Cc2cccs2)C(=O)O)n1Cc1ccc(C(=O)O)cc1` [eprosartan], the BDDCS class [3] is given as “Class 4”.

In the case of `CCCCc1nc(Cl)c(CO)n1Cc1ccc(-c2ccccc2-c2nn[nH]n2)cc1` [losartan], the “Change in AUC of the cumulative metabolite” value (rat hepatocytes [4]) is given as “no change in metabolite formation” and the BDDCS class [3] is given as “Class 2”.

For `CC(C)NCC(O)COc1cccc2ccccc12` (stereo not shown) [propranolol], the BDDCS class [3] is given as “Class 1”.

In the case of `C=C[C@H]1C[N@@]2CC[C@H]1C[C@@H]2[C@@H](O)c1ccnc2ccc(OC)cc12` [quinidine], the “Effect on metabolism of propranolol in rat microsomes” value (pooled rat microsomes [5]) was “inhibit metabolism” and the “Effect on metabolism of propranolol in human microsomes” value (pooled human microsomes [6]) was “inhibited propranolol metabolism”.

With `CO[C@H]1/C=C/O[C@@]2(C)Oc3c(C)c(O)c4c(O)c(c(/C=N/N5CCN(C)CC5)c(O)c4c3C2=O)NC(=O)/C(C)=C\C=C\[C@H](C)[C@H](O)[C@@H](C)[C@@H](O)[C@@H](C)[C@H](OC(C)=O)[C@@H]1C` [rifampin] the “Decrease of uptake of losartan in human hepatocytes compared to normal serum” value (human hepatocytes) was 55%, the “Change of uptake of eprosartan in rat hepatocytes compared to normal serum” value (rat hepatocytes [7]) was “no significant differences” and the “Effect on metabolism of losartan in rat microsomes” value (pooled rat microsomes [8]) was “no change in metabolism”.

In the case of `Nc1ccc(S(=O)(=O)Nc2ccnn2-c2ccccc2)cc1` [sulfaphenazole], the “Effect on metabolism of losartan in human microsomes” value (pooled human microsomes [9]) was “no inhibition of metabolism” and the “Effect on metabolism of losartan in rat microsomes” value (pooled rat microsomes [8]) was “decrease in metabolism”.

In the case of “IL-6: interleukin-6, tested as uremic toxin”, the “Inhibition of uptake of losartan in rat hepatocytes” value (rat hepatocytes [1]; losartan 10 μM, p<0.05, n=4) was 28%.
